{
  "source": "paper PMC7005646",
  "about": "“Overcoming resistance to anabolic SARM therapy in experimental cancer cachexia with an HDAC inhibitor” (EMBO Molecular Medicine, 2020)",
  "key": {"[1]": {"tested_on": "C‐26 tumor‐bearing mice", "test": "Combined androgen and AR‐42 study (Study 4), C‐26 model", "format": "in vivo, mouse", "protocol": "These studies were performed as previously described (Tseng et al, 2015a) with modifications. Tumors were established in the right flank of CD2F1 mice by subcutaneous injection of C‐26 cells (0.5 × 10^6 cells in 0.1 ml). […] TFM‐4AS‐1 (a potent experimental SARM), DHT, and vehicles were administered by subcutaneous injection.\nSimilar to Study 2, the tumor‐free control group was maintained at six animals, whereas 10 animals were included in each of the 6 tumor‐bearing groups. Six days after cell injection, animals with palpable tumors were treated once daily for 13 days with vehicles for AR‐42 and TFM‐4AS‐1/DHT (n = 9), AR‐42 (10 mg/kg; TFM‐4AS‐1/DHT vehicle; n = 10), TFM‐4AS‐1 (10 mg/kg; AR‐42 vehicle; n = 9), DHT (3 mg/kg; AR‐42 vehicle; n = 10), the combination of AR‐42 and TFM‐4AS‐1 (10 mg/kg each; n = 9), or the combination of AR‐42 (10 mg/kg) and DHT (3 mg/kg; n = 10). Grip strength was measured, and tissues were collected as in the previous studies.\nForelimb grip strength was measured using Bio‐GS3 Grip Strength Test Meter (Forceleader DBA Bioseb, Pinellas Park, FL). Each mouse was held by the base of its tail and lowered over the apparatus until its forepaws grasped the metal pull bar. […] The force applied to the bar at the moment of release was recorded as the peak force. […]"}, "[2]": {"tested_on": "C‐26 cells", "test": "Cell viability assay (CCK‐8)", "format": "cell-based, mouse", "conditions": "up to 10 µM, 48 hours", "protocol": "Cell viability assays were conducted using the CCK‐8 kit (Dojindo Molecular Technologies, Inc; Kumamoto, Japan). Briefly, 1,250 cells per well were plated on 96‐well plates and allowed to adhere overnight."}, "[3]": {"tested_on": "C‐26 tumor‐bearing mice", "test": "Initial AR‐42/GTx‐024 combination study (Study 1), male C‐26 tumor‐bearing mice", "format": "in vivo, mouse"}, "[4]": {"tested_on": "LLC tumor‐bearing mice", "test": "AR‐42/GTx‐024 combination study in the LLC cachexia model (Study 5)", "format": "in vivo, mouse", "protocol": "This study was performed as previously described (Tseng et al, 2015a) with modifications. Tumors were established in the right hindlimb of male C57BL/6NHsd mice by intramuscular injection of LLC cells (0.5 × 10^6 cells in 0.05 ml). Similar to Study 3, the tumor‐free control group was maintained at six animals, whereas 12 animals were included in each of the tumor‐bearing groups. […] Grip strength, body weight, and food consumption were measured, and tissues were collected as in the previous C‐26 studies."}, "[5]": {"test": "GTx‐024 plasma pharmacokinetics, LLC tumor‐bearing C57BL/6NHsd mice", "format": "in vivo, mouse", "protocol": "Blood was collected by cardiac puncture into heparinized tubes (BD Microtainer, Becton, Dickinson and Company, Franklin Lakes, NJ, USA) and immediately centrifuged at room temperature for 3 min at 4,200 RCF. Plasma was removed and placed on dry ice prior to storage at −80°C until analysis. Bioanalytical analyses were conducted as previously described (Cheng et al, 2016) by Charles River Laboratories, Inc. (Wilmington, MA, USA). Non‐compartmental analysis was performed using the PKNCA package in R version 3.6.0."}, "[6]": {"tested_on": "serum cytokines", "test": "Serum cytokine panel (multiplex), terminal samples from Study 2", "format": "in vivo, mouse", "conditions": "GTx‐024 15 mg/kg, mean ± SD", "protocol": "This confirmatory study was performed exactly as Study 1 with expanded animal numbers. Tumor‐free control groups were maintained at 6 animals each, whereas 10 animals were included in each of the tumor‐bearing groups. […] Grip strength was measured on study days 0 (baseline) and 16. Due to rapid model progression, this study was terminated on day 17 after only 12 days of treatment.\nSerum cytokine panel analyses were performed by a commercial vendor (Eve Technologies, Calgary, Canada) as previously described (Tseng et al, 2015a). Serum interleukin‐6 (IL‐6) was measured using a commercial ELISA kit (R&D Systems, Minneapolis, MN, USA) according to the manufacturer's instructions."}, "[7]": {"tested_on": "pSTAT3 (Y705)", "test": "pSTAT3/tSTAT3 Western blot of gastrocnemius muscle", "format": "in vivo, mouse", "protocol": "Western blots from all studies were performed on gastrocnemius muscle from representative animals lysed by Nonidet P‐40 isotonic lysis buffer [50 mM Tris–HCl, pH 7.5, 120 mM NaCl, 1% (v/v) Nonidet P‐40, 1 mM EDTA, 50 mM NaF, 40 mM glycerophosphate, and […] each of protease inhibitors (aprotinin, pepstatin, and leupeptin)]. Equivalent amounts of protein from each sample, as determined by the Bradford assay (Bio‐Rad), were resolved by SDS–PAGE and then transferred (semi‐dry) onto Immobilon nitrocellulose membranes (Millipore, Bellerica, MA). Membranes were washed twice with TBST [Tris‐buffered saline (TBS) containing 0.1% Tween‐20], blocked with 5% non‐fat milk in TBST for 1 h, and then washed an additional three times. Membranes were incubated with specific primary antibody in TBST (1:1,000) at 4°C overnight, washed three times (TBST), and then incubated with appropriate goat anti‐rabbit or anti‐mouse IgG–horseradish peroxidase‐conjugated secondary antibodies (1:5,000) at room temperature (1 h). Following additional washes (TBST), immunoblots were visualized as appropriate by ECL chemiluminescence (Amersham Biosciences, Little Chalfont, United Kingdom) or Duration HRP Chemiluminescence (Alkali Scientific, Florida, United States). Primary antibodies: phospho‐STAT3 (Tyr705) (D3A7) XP® rabbit mAb #9145, STAT3 (124H6) mouse mAb #9139 (Cell Signaling Technology, Danvers, MA); α‐tubulin (B‐7), sc‐5286 (Santa Cruz Biotechnologies, Santa Cruz, CA); androgen receptor (EP670Y), ab52615 (Abcam, Cambridge, MA) and GAPDH (6C5), sc‐32233 (Santa Cruz Biotechnologies, Santa Cruz, CA)."}, "[8]": {"tested_on": "serum‐luteinizing hormone", "test": "Serum luteinizing hormone radioimmunoassay, Study 1", "format": "in vivo, mouse", "conditions": "Study 1, day 18, 15 mg/kg, C‐26 tumor‐bearing mice", "protocol": "Luteinizing hormone was measured in serum by a two‐site sandwich radioimmunoassay performed by the Ligand Assay and Analysis Core at the Center for Research in Reproduction, University of Virginia School of Medicine (Charlottesville, VA). Serum was isolated by centrifugation (2,000 g, 15 min) from whole blood samples collected from mice immediately post‐mortem, and then stored at −80°C until shipment on dry ice."}, "[9]": {"conditions": "male rats, 0.5 mpk; ref Xenobiotica. 2013 Nov;43(11):993-1009; cited from earlier work"}, "[10]": {"conditions": "Study 1, male, day 18, GTx‐024 15 mg/kg, AR‐42 10 mg/kg, or both"}, "[11]": {"conditions": "male, C57BL/6NHsd, mouse, single 15 mg/kg oral dose, plasma"}, "[12]": {"conditions": "C‐26 Tumor‐bearing, AR‐42 10 mg/kg, or both"}},
  "data": [
    {"smiles": "C[C@]12CCC(=O)C[C@@H]1CC[C@@H]1[C@@H]2CC[C@]2(C)[C@@H](O)CC[C@@H]12", "note": "[DHT, dihydrotestosterone]", "values": [
      {"measurement": "C‐26 tumor growth", "setting": "[1]; Study 4, DHT alone 3 mg/kg, after 8 days of administration", "value": "tumor growth was significantly suppressed"},
      {"measurement": "direct effects on C‐26 cell viability", "setting": "[2]", "value": "did not detect direct effects"}
    ]},
    {"smiles": "C[C@](O)(COc1ccc(C#N)cc1)C(=O)Nc1ccc(C#N)c(C(F)(F)F)c1", "note": "[GTx‐024, (S)‐N‐(4‐cyano‐3‐(trifluoromethyl)phenyl)‐3‐(4‐cyanophenoxy)‐2‐hydroxy‐2‐methylpropanamide]", "values": [
      {"measurement": "body weight in tumor‐free controls", "setting": "[3]; Study 1, 15 mg/kg daily oral", "value": "did not cause body weight loss"},
      {"measurement": "terminal body weight corrected for tumor mass", "setting": "[3]; Study 1, male, day 18, 13 days daily oral, GTx‐024 15 mg/kg, AR‐42 10 mg/kg, or both", "value": "79.0 ± 11.2 % of tumor‐free controls"},
      {"measurement": "terminal gastrocnemius mass", "setting": "[3]; [10]", "value": "84 ± 11.3 % of tumor‐free controls"},
      {"measurement": "terminal quadriceps mass", "setting": "[3]; [10]", "value": "80.0 ± 9.1 % of tumor‐free controls"},
      {"measurement": "LLC tumor growth", "setting": "[4]; Study 5, 15 mg/kg daily oral", "value": "stimulated LLC tumor growth"},
      {"measurement": "LLC tumor growth", "setting": "[4]; repeat of Study 5, 0.5 mg/kg daily oral", "value": "did not promote LLC tumor growth"},
      {"measurement": "response of body weight and skeletal muscle mass loss", "setting": "[4]; repeat of Study 5, 10 mg/kg AR‐42, 0.5 mg/kg GTx‐024, or both", "value": "did not respond"},
      {"measurement": "projected mouse exposure at 0.5 mpk over rat exposure at 0.5 mpk", "setting": "[5]; 28.8 vs 4.3 ug*hr/mL", "value": 6.7, "unit": "fold"},
      {"measurement": "exposure projected for 0.5 mg/kg", "setting": "[5]; 30‐fold dose reduction from 15 mg/kg, mouse", "value": "~ 28.8 μg*h/ml"},
      {"measurement": "AUC(0-inf)", "setting": "[5]; [11]", "value": 863, "unit": "µg·h/mL"},
      {"measurement": "AUC(0-t)", "setting": "[5]; [11]", "value": 721, "unit": "µg·h/mL"},
      {"measurement": "Cmax", "setting": "[5]; [11]", "value": 25800, "unit": "ng/mL"},
      {"measurement": "half-life", "setting": "[5]; [11]", "value": 18.1, "unit": "h"},
      {"measurement": "GM‐CSF, serum", "setting": "[6]; [12]", "value": "17.35 ± 4.33", "unit": "pg/mL"},
      {"measurement": "G‐CSF, serum", "setting": "[6]; [12]", "value": "2446.63 ± 1625.70", "unit": "pg/mL"},
      {"measurement": "IL‐6, serum", "setting": "[6]; [12]", "value": "397.54 ± 341.43", "unit": "pg/mL"},
      {"measurement": "IL‐17, serum", "setting": "[6]; [12]", "value": "1.75 ± 1.28", "unit": "pg/mL"},
      {"measurement": "IP‐10, serum", "setting": "[6]; [12]", "value": "154.76 ± 17.98", "unit": "pg/mL"},
      {"measurement": "KC, serum", "setting": "[6]; [12]", "value": "288.89 ± 154.46", "unit": "pg/mL"},
      {"measurement": "LIF, serum", "setting": "[6]; [12]", "value": "45.26 ± 21.57", "unit": "pg/mL"},
      {"measurement": "LIX, serum", "setting": "[6]; [12]", "value": "5234.39 ± 4771.34", "unit": "pg/mL"},
      {"measurement": "M‐CSF, serum", "setting": "[6]; [12]", "value": "22.23 ± 9.45", "unit": "pg/mL"},
      {"measurement": "GM‐CSF, serum", "setting": "[6]; Tumor‐free", "value": "13.27 ± 4.62", "unit": "pg/mL"},
      {"measurement": "G‐CSF, serum", "setting": "[6]; Tumor‐free", "value": "338.39 ± 71.70", "unit": "pg/mL"},
      {"measurement": "IL‐6, serum", "setting": "[6]; Tumor‐free", "value": "2.45 ± 1.31", "unit": "pg/mL"},
      {"measurement": "IL‐17, serum", "setting": "[6]; Tumor‐free", "value": "5.01 ± 1.18", "unit": "pg/mL"},
      {"measurement": "IP‐10, serum", "setting": "[6]; Tumor‐free", "value": "145.68 ± 48.83", "unit": "pg/mL"},
      {"measurement": "KC, serum", "setting": "[6]; Tumor‐free", "value": "90.02 ± 17.69", "unit": "pg/mL"},
      {"measurement": "LIF, serum", "setting": "[6]; Tumor‐free", "value": "2.50 ± 2.34", "unit": "pg/mL"},
      {"measurement": "LIX, serum", "setting": "[6]; Tumor‐free", "value": "1316.67 ± 1662.66", "unit": "pg/mL"},
      {"measurement": "M‐CSF, serum", "setting": "[6]; Tumor‐free", "value": "27.23 ± 10.09", "unit": "pg/mL"},
      {"measurement": "direct effects on C‐26 cell viability", "setting": "[2]", "value": "did not detect differences in the direct effects"},
      {"measurement": "pSTAT3 in gastrocnemius", "setting": "[7]; female C‐26 tumor‐bearing mice, Study 3", "value": "reduced levels of pSTAT3 activation"},
      {"measurement": "pSTAT3 in gastrocnemius", "setting": "[7]; male C‐26 tumor‐bearing mice, Study 1", "value": "no apparent effect"},
      {"measurement": "serum‐luteinizing hormone", "setting": "[8]", "value": "suppressed serum‐luteinizing hormone"},
      {"measurement": "AUCinf", "setting": "[9]", "value": "approximately 4.3 ug*hr/mL"}
    ]},
    {"smiles": "CN1C(=O)C=C[C@]2(C)[C@H]3CC[C@]4(C)[C@@H](C(=O)Nc5ccccc5C(F)(F)F)CC[C@H]4[C@@H]3CC[C@@H]12", "note": "[TFM‐4AS‐1]", "values": [
      {"measurement": "sparing of body weight or mass of gastrocnemius or quadriceps", "setting": "[1]; Study 4, monotherapy 10 mg/kg subcutaneous", "value": "did not spare body weight"}
    ]}
  ]
}
